Laboratory results taken from patent publication US7314621B2, “Cytidine deaminase” (Kyoto University, priority 1999, dated 2008).

How the values were obtained:
AID protein = target: T1, AID protein (Mus musculus, UniProt Q9WVE0); experiment: Inhibition of the cytidine deaminase activity of the AID-GST fusion protein; format: biochemical; conditions: for inhibition of the cytidine deaminase activity of AID protein: 20 mM printed for 1,10-o-phenanthroline, both isomers tested 0 to 20 mM; for inhibition of the cytidine deaminase activity of AID protein (in words): zinc chelator and inactive isomer
T1 construct: a full length AID cDNA was expressed as a fusion protein with glutathione S-transferase (GST); made in house; host or cells: E. coli DH5alpha
T1 sequence (Q9WVE0 whole entry, the tested form may be a part): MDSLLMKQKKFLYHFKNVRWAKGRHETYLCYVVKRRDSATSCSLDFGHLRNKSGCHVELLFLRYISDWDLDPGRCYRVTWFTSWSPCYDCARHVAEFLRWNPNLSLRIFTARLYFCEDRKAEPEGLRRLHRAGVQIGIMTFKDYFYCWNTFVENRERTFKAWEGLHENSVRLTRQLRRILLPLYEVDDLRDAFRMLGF
Method: The purified AID-GST fusion protein prepared in the above (2, 4, 6, 8, 10, 20, 40, 60, 100, 200, 300, 400, and 600 ng) was incubated in the buffer (pH 7.5, the total amount 10 μl) containing 45 mM Tris with 3.3 μCi [^3H] deoxycytidine (24.8 Ci/mmol, DuPont) and 250 μM cytidine for 2 to 4 hours. The reaction was terminated by adding deoxycytidine (2 μl of 10 μg/ml) and deoxyuridine (2 μl of 10 μg/ml). Insoluble substances were removed by centrifugation, and the reaction mixture (4 μl) was subjected to the polyethylene imine-cellulose thin layer chromatography plate (VWR). The plate was developed in isopropyl alcohol/10% HCl (7:2 v/v). The plate was exposed to ultraviolet light (254 nm) for visualization and bands corresponding to deoxycytidine and deoxyuridine were collected, and added to Ultima Gold scintillation solution to be quantified by liquid scintillation photometer (Packard)

[1] = system: mouse B cell clone CH12F3-2; experiment: Production of looped-out circular DNA by class switch recombination (PCR, Southern hybridization); format: cell-based; conditions: cycloheximide 200 ng/ml, 6 hours, stimulation with IL-4, TGF-β, CD40L
Method: CH12F3-2 B cells, either stimulated by IL-4, TGF-β, and CD40L or unstimulated, were cultured for 6 hours in the presence or absence of cycloheximide (200 ng/ml) which is a protein synthesis inhibitor, respectively. Genomic DNA was extracted from each cell, and PCR was conducted with the DNA as a template following standard methods to amplify circular DNA including an Sμ sequence and an Sα sequence. PCR was conducted using pairs of primers, αF1 and […], or αF1 and […].
As a control, genomic DNA encoding glyceraldehyde-3-phosphate dehydrogenase (GAPDH) was amplified by PCR.
The PCR products were subjected to gel electrophoresis and ethidium bromide staining. FIG. 1(a) and FIG. 2(a) show the results.
To confirm the presence or absence of the amplification of a circular DNA including the looped-out S region, Southern hybridization was conducted against the PCR products using a mouse Sa region gene as a hybridization probe, according to standard methods (L. Sambrook E. F., Tom Maniatis., Second edition, Ed. Molecular Cloning (Nolan, C., Ed.) Cold Spring Harbor, 1989). A 1,155 bp DNA fragment obtained by digesting 10 kb EcoRI cleaved fragment IgH703 with Hind III and Earl was used as an Sα gene (Genbank #D11468, DNA No. 1993-3148) (J, Biol. Chem., Vol. 268, p. 4651-4665). FIGS. 1(b) and 2(b) show the results.

[2] = system: AID mRNA in mouse B cell clone CH12F3-2; experiment: Cytokine-induced AID (23C9) mRNA expression, Northern blotting; format: cell-based; conditions: cycloheximide 200 ng/ml, 12 hours, IL-4, TGF-β, CD40L
Method: The degree of enhanced expression of the gene coding for a novel protein 23C9 in mouse B cell clone CH12F3-2 stimulated with IL-4, TGF-β and CD40L was analyzed according to the standard method (L. Sambrook, E. F., Tom Maniatis., Second edition, Ed. Molecular Cloning (Nolan, C., Ed.), Cold Spring Harbour, 1989) by Northern blotting.
Mouse B cell clone CH12F3-2 was cultured in the presence of one of the following regents for 12 hours. • (1) IL-4, TGF-β and CD40L only. • (2) Cycloheximide which is a protein synthesis inhibitor (200 ng/ml), only • (3) IL-4, TGF-β and CD40L as well as Cycloheximide (200 ng/ml)
Northern blotting was conducted against mRNA (10 μg for each group) obtained in the same manner as previously reported (Nucleic Acid Res., 26:911-918, 1998) from each group of treated cells using a radio-labeled cDNA fragment (1,020 bp) coding for a novel protein 23C9, obtained in the above Example, according to the standard method (L. Sambrook, E. F., Tom Maniatis., Second edition, Ed. Molecular Cloning (Nolan, C., Ed.), Cold Spring Harbour, 1989).
As a control experiment, Northern blotting was conducted for mRNA derived from B cell clone CH12F3-2 cultured without any one of the above cytokines, or cycloheximide.
The amount of mRNA to be electrophoresed was adjusted using the amount of mRNA for glyceraldehyde-3-phosphate dehydrogenase (GAPDH) as an index. […]

| Compound | inhibition of the cytidine deaminase activity of AID protein (AID protein) | inhibition of the cytidine deaminase activity of AID protein (in words) (AID protein) | production of looped-out DNA containing the Sα sequence with class switch recombination [1] | induction of AID mRNA expression by cytokines [2] |
| --- | --- | --- | --- | --- |
| c1cnc2c(c1)ccc1ncccc12 [1,7-o-phenanthroline] | about 13% | weak inhibition |  |  |
| c1cnc2c(c1)ccc1cccnc12 [1,10-o-phenanthroline] | about 91% | inhibits |  |  |
| C[C@@H]1C[C@@H]([C@H](O)CC2CC(=O)NC(=O)C2)C(=O)[C@@H](C)C1 [cycloheximide] |  |  | inhibited | can be inhibited |
